Experiments:
recombinant Nm23-H1 = recombinant Nm23-H1 (Homo sapiens, UniProt P15531); assay: NDPK assay with recombinant Nm23-H1; assay type: biochemical; set-up: NDPK activity: unit not given here; conditions: for NDPK activity: 5 ng recombinant Nm23-H1, 10 min room temperature, then 5 μM ADP 1 min, compound concentration not given
Description: NDPK assay was performed by incubating 5 ng of recombinant Nm23-H1 with each of test compounds (Examples 1 to 3) in NDPK assay buffer (20 mM HEPES, 3 mM MgCl2) at room temperature for 10 minutes, followed by reaction with 5 μM ADP for 1 minute.

MDA-MB-231 cells [1] = assay: Matrigel invasion assay; assay type: cell-based; conditions: Transwell with Matrigel, 24 hours at 37° C.
Description: Invasion assay was performed using a Transwell® unit (Corning, USA) with a polycarbonate membrane (pore size: 8 μm), with or without Matrigel coating. The membrane was coated with 50 μg Matrigel™-based membrane matrix (BD Bioscience, USA). 5×10^4 MDA-MB-231 cells were seeded into the upper chamber in a serum-free medium together with the compound of Example 1, and the lower chamber was filled with a medium containing 10% FBS. After incubation for 24 hours at 37° C., the cells on the upper side of the membrane were removed. The cells invading to the underside of the membrane were stained with 0.5% Crystal violet in 25% methanol and counted at 100-fold magnification under a microscope.

MDA-MB-231 cells [2] = assay: Immunofluorescent staining assay (F-actin localization); assay type: cell-based; conditions: Rhodamine-Phalloidin staining, various times
Description: MDA-MB-231 cells were grown on the Secureslip™ (Sigma) cell culture glass cover slip to a confluence of 50 to 70%, and then treated with or without the compound of Example 1 (B038) for various times. The cells were gently washed with cold HBSS, and then fixed with 4% paraformaldehyde-containing HBSS […] for 10 minutes at room temperature. After washing with HBSS, permeabilization with 0.1% Triton X-100 was performed for 10 minutes at room temperature. After washing twice with HBSS, the cells were blocked with 3% BSA, 0.2% Tween20 and 0.2% gelatin in HBSS for 1 hour at room temperature, and incubated with primary antibody at 37° C. for 2 hours. F-actin was stained by Rhodamine-Phalloidin (Thermo Fisher Scientific) for 2 hours at 37° C., followed by washing 3 times with HBSS for 20 minutes. Coverslips were mounted with an anti-fading solution and viewed using an ×63 objective lens of an LSM510 META (Zeiss) laser scanning confocal microscope.

recombinant Nm23-H1, sequence (P15531 whole entry): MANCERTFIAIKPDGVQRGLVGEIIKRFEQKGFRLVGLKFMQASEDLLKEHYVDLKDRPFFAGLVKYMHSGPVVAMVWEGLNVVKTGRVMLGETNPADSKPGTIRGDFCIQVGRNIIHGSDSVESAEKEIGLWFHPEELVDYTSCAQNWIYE

COc1cc(CCc2ccccc2-c2ccc(OC)c(OC)c2)ccc1O [Example 10, 4-(2-(3′,4′-dimethoxy-[1,1′-biphenyl]-2-yl)ethyl)-2-methoxyphenol]
NDPK activity (recombinant Nm23-H1): 2.6

COc1cc(-c2ccccc2CCc2ccc(OC)c(OC)c2)ccc1O [Example 5, 2′-(3,4-dimethoxyphenethyl)-3-methoxy-[1,1′-biphenyl]-4-ol]
NDPK activity (recombinant Nm23-H1): 4

COc1ccc(CCc2ccccc2-c2ccc(OC)c(OC)c2)cc1O [Example 7, 5-(2-(3′,4′-dimethoxy-[1,1′-biphenyl]-2-yl)ethyl)-2-methoxyphenol]
NDPK activity (recombinant Nm23-H1): 3.5

COc1ccc(NC(=O)c2ccccc2-c2ccc(OC)c(OC)c2)cc1OC [Example 3, N-(3,4-dimethoxyphenyl)-3′,4′-dimethoxy-[1,1′-biphenyl]-2-carboxamide]
NDPK activity (recombinant Nm23-H1): 1.32

COc1ccc(-c2ccccc2CCc2ccc(OC)c(OC)c2)cc1O [Example 6, 2′-(3,4-dimethoxyphenethyl)-4-methoxy-[1,1′-biphenyl]-3-ol]
NDPK activity (recombinant Nm23-H1): 1.9

COc1ccc(C(=O)Nc2ccccc2-c2ccc(OC)c(OC)c2)cc1OC [Example 4, N-(3′,4′-dimethoxy-[1,1′-biphenyl]-2-yl)-3,4-dimethoxybenzamide]
NDPK activity (recombinant Nm23-H1): 1.52

COc1ccc(-c2ccccc2C2OC2c2ccc(OC)c(OC)c2)cc1OC (centres unmarked) [Example 2, 2-(3′,4′-dimethoxy-[1,1′-biphenyl]-2-yl)-3-(3,4-dimethoxyphenyl)oxirane]
NDPK activity (recombinant Nm23-H1): 4.08

COc1ccc(CCc2ccccc2-c2ccc(OC)c(OC)c2)cc1OC [Example 1]
NDPK activity (recombinant Nm23-H1): 6.55 | NDPK activity-increasing effect at various concentrations (FIG. 1) (recombinant Nm23-H1; various concentrations): excellent effect of increasing NDPK activity even at low concentrations | cell invasion (counting invaded cells, FIGS. 2A and 2B) (MDA-MB-231 cells [1]): significantly suppressed cell invasion | localization of F-actin (ruffles, cell-to-cell contact; FIG. 3) (MDA-MB-231 cells [2]): ruffles decreased and cell-to-cell contact increased
